PubChem BioAssay AID330 (DTP/NCI, 2004)
“And” between values parts separate entries of the source, which are not always exact repeats. Identical values can stand only once. Inconclusive results and toxic doses are left out.

System: P388 leukemia ip, CD2F1 mice, survival T/C
Test: NCI In Vivo Anticancer Drug Screen. Data for tumor model P388 Leukemia (intraperitoneal) in CD2F1 (CDF1) mice
Details: endpoint: median survival time, higher = longer survival
Outline: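 Mice carrying the transplanted tumor received test compound or vehicle. Survival was recorded in each group, and the value is the treated-group measurement divided by that of the vehicle-treated control group.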

[1] = dose: 12.5 mg/kg/injection, schedule: Q01DX009 (ip), vehicle: saline with Tween-80
[2] = dose: 50.0 mg/kg/injection, schedule: Q01DX009 (ip), vehicle: Klucel (hydroxypropylcellulose) (HPC)
[3] = dose: 100.0 mg/kg/injection, schedule: Q01DX009 (ip), vehicle: Klucel (hydroxypropylcellulose) (HPC)
[4] = dose: 200.0 mg/kg/injection, schedule: Q01DX009 (ip), vehicle: Klucel (hydroxypropylcellulose) (HPC)
[5] = dose: 60.0 mg/kg/injection, schedule: Q01DX005 (ip), vehicle: Klucel (hydroxypropylcellulose) (HPC)
[6] = dose: 120.0 mg/kg/injection, schedule: Q01DX005 (ip), vehicle: Klucel (hydroxypropylcellulose) (HPC)
[7] = dose: 50.0 mg/kg/injection, schedule: Q01DX005 (ip), vehicle: saline with Tween-80
[8] = dose: 100.0 mg/kg/injection, schedule: Q01DX005 (ip), vehicle: saline with Tween-80
[9] = dose: 50.0 mg/kg/injection, schedule: Q01DX009 (ip), vehicle: saline
[10] = dose: 25.0 mg/kg/injection, schedule: Q01DX009 (ip), vehicle: Klucel (hydroxypropylcellulose) (HPC)
[11] = dose: 50.0 mg/kg/injection, schedule: Q01DX005 (ip), vehicle: Klucel (hydroxypropylcellulose) (HPC)
[12] = dose: 100.0 mg/kg/injection, schedule: Q01DX005 (ip), vehicle: Klucel (hydroxypropylcellulose) (HPC)
[13] = dose: 200.0 mg/kg/injection, schedule: Q01DX005 (ip), vehicle: Klucel (hydroxypropylcellulose) (HPC)
[14] = dose: 100.0 mg/kg/injection, schedule: Q01DX009 (ip), vehicle: saline with Tween-80
[15] = dose: 200.0 mg/kg/injection, schedule: Q01DX009 (ip), vehicle: saline with Tween-80
[16] = dose: 400.0 mg/kg/injection, schedule: Q01DX009 (ip), vehicle: saline with Tween-80

## COc1cncn2nc(C)nc12
dose: 60.0 mg/kg/injection, schedule: Q01DX005 (ip), vehicle: saline
  T/C: 100 % of control
dose: 120.0 mg/kg/injection, schedule: Q01DX005 (ip), vehicle: saline
  T/C: 99 % of control
dose: 240.0 mg/kg/injection, schedule: Q01DX005 (ip), vehicle: saline
  T/C: 93 % of control

## O=C(NC1CCCCC1)OCc1c(COC(=O)NC2CCCCC2)c(-c2ccc(Cl)c(Cl)c2)n2c1CCCC2
dose: 12.5 mg/kg/injection, schedule: Q01DX009 (ip), vehicle: distilled water + Tween-80
  T/C: 96 % of control
dose: 25.0 mg/kg/injection, schedule: Q01DX009 (ip), vehicle: distilled water + Tween-80
  T/C: 89 % of control and 91 % of control
dose: 50.0 mg/kg/injection, schedule: Q01DX009 (ip), vehicle: distilled water + Tween-80
  T/C: 87 % of control and 96 % of control
dose: 100.0 mg/kg/injection, schedule: Q01DX009 (ip), vehicle: distilled water + Tween-80
  T/C: 99 % of control and 100 % of control
dose: 200.0 mg/kg/injection, schedule: Q01DX009 (ip), vehicle: distilled water + Tween-80
  T/C: 99 % of control and 116 % of control
dose: 400.0 mg/kg/injection, schedule: Q01DX009 (ip), vehicle: distilled water + Tween-80
  T/C: 116 % of control

## N=C(N)c1ccc(SCCCCCSc2ccc(C(=N)N)cc2)cc1
dose: 3.13 mg/kg/injection, schedule: Q01DX009 (ip), vehicle: saline with Tween-80
  T/C: 117 % of control
dose: 6.25 mg/kg/injection, schedule: Q01DX009 (ip), vehicle: saline with Tween-80
  T/C: 124 % of control
[1]
  T/C: 119 % of control

## C#CC(C)ON1C(=O)c2ccccc2C1=O (stereo not given)
dose: 100.0 mg/kg/injection, schedule: Q01DX001 (ip), vehicle: other
  T/C: 109 % of control
dose: 200.0 mg/kg/injection, schedule: Q01DX001 (ip), vehicle: other
  T/C: 100 % of control
dose: 400.0 mg/kg/injection, schedule: Q01DX001 (ip), vehicle: other
  T/C: 100 % of control

## COc1ccc(C(=O)c2ccccc2)cc1
[2]
  T/C: 105 % of control
[3]
  T/C: 108 % of control
[4]
  T/C: 102 % of control
dose: 400.0 mg/kg/injection, schedule: Q01DX009 (ip), vehicle: Klucel (hydroxypropylcellulose) (HPC)
  T/C: 98 % of control

## N=c1c2[nH]cnc2ncn1O
[5]
  T/C: 92 % of control
[6]
  T/C: 93 % of control

## C/C(=N\NC(=S)N1CCC(C)CC1)c1cccc2cccnc12
[7]
  T/C: 106 % of control
[8]
  T/C: 104 % of control

## Cn1c(=O)c2c(ncn2-c2ccc(N)cc2)n(C)c1=O
dose: 1.56 mg/kg/injection, schedule: Q01DX005 (ip), vehicle: water
  T/C: 95 % of control
dose: 3.12 mg/kg/injection, schedule: Q01DX005 (ip), vehicle: water
  T/C: 105 % of control
dose: 6.25 mg/kg/injection, schedule: Q01DX005 (ip), vehicle: other
  T/C: 104 % of control
dose: 6.25 mg/kg/injection, schedule: Q01DX005 (ip), vehicle: water
  T/C: 96 % of control
dose: 12.5 mg/kg/injection, schedule: Q01DX005 (ip), vehicle: other
  T/C: 106 % of control
dose: 12.5 mg/kg/injection, schedule: Q01DX005 (ip), vehicle: water
  T/C: 102 % of control
dose: 25.0 mg/kg/injection, schedule: Q01DX005 (ip), vehicle: other
  T/C: 101 % of control
dose: 50.0 mg/kg/injection, schedule: Q01DX005 (ip), vehicle: water
  T/C: 101 % of control

## Cc1c(Cl)cccc1N=Cc1cccs1
[2]
  T/C: 105 % of control
[3]
  T/C: 105 % of control
[4]
  T/C: 105 % of control

## COc1cc2c(c(OC)c1OC)-c1ccc(OC)c(=O)cc1[C@@H](N(C)C(C)=O)CC2
dose: 0.31 mg/kg/injection, schedule: Q01DX009 (ip), vehicle: Klucel (hydroxypropylcellulose) (HPC)
  T/C: 157 % of control and 187 % of control
dose: 0.62 mg/kg/injection, schedule: Q01DX009 (ip), vehicle: Klucel (hydroxypropylcellulose) (HPC)
  T/C: 181 % of control

## O=C(/C=C/c1c2ccccc2cc2ccccc12)c1ccc(C(=O)/C=C/c2c3ccccc3cc3ccccc23)cc1
[1]
  T/C: 105 % of control
dose: 25.0 mg/kg/injection, schedule: Q01DX009 (ip), vehicle: saline with Tween-80
  T/C: 90 % of control

## CN1CCCC(C(=O)c2ccccc2)C1 (stereo not given)
dose: 12.5 mg/kg/injection, schedule: Q01DX009 (ip), vehicle: saline
  T/C: 109 % of control
dose: 25.0 mg/kg/injection, schedule: Q01DX009 (ip), vehicle: saline
  T/C: 105 % of control
[9]
  T/C: 107 % of control and 94 % of control

## COC(=O)C1c2ccccc2CC(=O)N1N (stereo not given)
dose: 6.25 mg/kg/injection, schedule: Q01DX009 (ip), vehicle: Klucel (hydroxypropylcellulose) (HPC)
  T/C: 102 % of control
dose: 12.5 mg/kg/injection, schedule: Q01DX009 (ip), vehicle: Klucel (hydroxypropylcellulose) (HPC)
  T/C: 100 % of control
[10]
  T/C: 100 % of control

## CS(=O)(=O)c1ccccc1NN
[2]
  T/C: 111 % of control
[3]
  T/C: 105 % of control
[4]
  T/C: 100 % of control

## Cc1cc(N)ncc1[N+](=O)[O-]
[7]
  T/C: 99 % of control
[8]
  T/C: 101 % of control
dose: 200.0 mg/kg/injection, schedule: Q01DX005 (ip), vehicle: saline with Tween-80
  T/C: 98 % of control

## CC(C)OC(=O)NP1(=O)NCc2ccccc2CN1
[11]
  T/C: 101 % of control
[12]
  T/C: 103 % of control
[13]
  T/C: 94 % of control

## NC(=O)NC(=O)CCl
[10]
  T/C: 105 % of control and 94 % of control
[2]
  T/C: 103 % of control and 122 % of control and 94 % of control

## OCCSCc1ccc(F)cc1
[11]
  T/C: 101 % of control
[12]
  T/C: 97 % of control
[13]
  T/C: 104 % of control

## CCC(=O)OC1C(OC2C(C)C(OC3CC(C)(OC)C(O)C(C)O3)C(C)C(=O)OC(CC)C(C)(O)C(O)C(C)C(=O)C(C)CC2(C)O)OC(C)CC1N(C)C (stereo not given)
[9]
  T/C: 105 % of control
dose: 100.0 mg/kg/injection, schedule: Q01DX009 (ip), vehicle: saline
  T/C: 97 % of control
dose: 200.0 mg/kg/injection, schedule: Q01DX009 (ip), vehicle: saline
  T/C: 92 % of control

## O=C(NCCCCOc1ccc([N+](=O)[O-])cc1Cl)NC1CCCCC1
dose: 50.0 mg/kg/injection, schedule: Q01DX001 (ip), vehicle: saline with Tween-80
  T/C: 90 % of control
dose: 100.0 mg/kg/injection, schedule: Q01DX001 (ip), vehicle: saline with Tween-80
  T/C: 100 % of control
dose: 200.0 mg/kg/injection, schedule: Q01DX001 (ip), vehicle: saline with Tween-80
  T/C: 100 % of control

## O=C1NC(=O)C(Cc2ccccc2)(Cc2ccccc2)C(=O)N1
[14]
  T/C: 90 % of control
dose: 100.0 mg/kg/injection, schedule: Q04DX003 (ip), vehicle: saline with Tween-80
  T/C: 110 % of control
[15]
  T/C: 95 % of control
dose: 200.0 mg/kg/injection, schedule: Q04DX003 (ip), vehicle: saline with Tween-80
  T/C: 100 % of control
[16]
  T/C: 95 % of control
dose: 400.0 mg/kg/injection, schedule: Q04DX003 (ip), vehicle: saline with Tween-80
  T/C: 110 % of control

## O=C(O)CC1(C(=O)O)CC2C=CC1C2 (stereo not given)
dose: 60.0 mg/kg/injection, schedule: Q01DX005 (ip), vehicle: saline with Tween-80
  T/C: 104 % of control
dose: 120.0 mg/kg/injection, schedule: Q01DX005 (ip), vehicle: saline with Tween-80
  T/C: 91 % of control
dose: 240.0 mg/kg/injection, schedule: Q01DX005 (ip), vehicle: saline with Tween-80
  T/C: 91 % of control

## O=C1/C(=C/c2cccs2)CCc2ccccc21
[5]
  T/C: 100 % of control
[6]
  T/C: 107 % of control
dose: 240.0 mg/kg/injection, schedule: Q01DX005 (ip), vehicle: Klucel (hydroxypropylcellulose) (HPC)
  T/C: 98 % of control

## CC(=O)Nc1nc(C)c(CCCOc2ccc([N+](=O)[O-])cc2)c(=O)[nH]1
[5]
  T/C: 86 % of control
[6]
  T/C: 86 % of control

## N#CC1CC2(CCC1=O)c1ccccc1-c1ccccc12 (stereo not given)
dose: 25.0 mg/kg/injection, schedule: Q04DX002 (ip), vehicle: saline with Tween-80
  T/C: 92 % of control
dose: 50.0 mg/kg/injection, schedule: Q04DX002 (ip), vehicle: saline with Tween-80
  T/C: 98 % of control

## CNC(=O)N(C)C1=NC(O)(c2ccccc2)C(c2ccccc2)=N1 (stereo not given)
dose: 100.0 mg/kg/injection, schedule: Q04DX002 (ip), vehicle: saline with Tween-80
  T/C: 87 % of control

## Cc1ccc(O)c(C(NCCO)c2ccccc2)c1 (stereo not given)
dose: 100.0 mg/kg/injection, schedule: Q04DX002 (ip), vehicle: saline
  T/C: 102 % of control

## O=[N+]([O-])c1ccc(C(O)C(Br)[N+](=O)[O-])cc1 (stereo not given)
[14]
  T/C: 104 % of control
[15]
  T/C: 104 % of control
[16]
  T/C: 95 % of control
